Laboratory results published in US8846653B2, “Delta-tocotrienol treatment and prevention of pancreatic cancer” (University of South Florida, priority 2006, dated 2014).

Columns and labels:
Assay type in all cases: cell-based, human
MiaPaCa-2 cells [1] = test: MTS assay of MiaPaCa2 cultures, single 50 μM dose; conditions: MiaPaCa2, 50 μM
Experimental: MiaPaCa-2 cells were cultured in complete DMEM media containing 10% fetal bovine serum (FBS) and 1% penicillin-streptomycin, and 1% L-glutamine. BxPc-3 pancreatic cancer cells were cultured in complete RPMI media containing 10% fetal bovine serum (FBS), and 1% penicillin-streptomycin, 1% HEPES buffer, 1% sodium pyruvate and 1% L-glutamine HPDE6-C7 cells were cultured in serum-free keratinocyte SFM media. All cells were maintained at 37° C. in a humidified incubator with 5% CO2. The cells were treated with a single 50 μM dose of vehicle (vehicle only, may be a solvent), T3 alpha (alpha tocotrienol), T3 beta (beta tocotrienol), T3 gamma (gamma tocotrienol), T3 delta (delta tocotrienol), T alpha (alpha tocopherol), T beta (beta tocopherol), TS (tocopherol succinate), GG (geranylgeraniol), SA (succinic acid). A control (no treatment) culture was grown alongside the treatments for comparison. […]

MiaPaCa-2 cells [2] = test: MTT assay of MiaPaCa2 cultures, single 50 μM dose; set-up: rel amt (relative value set to the control): unit not given here; conditions: MiaPaCa2, 50 μM; for MTT assay result, av-blank: average minus blank; for MTT assay result, av: average of 7 runs
Experimental: MiaPaCa-2, BxPc-3, and HPDE6-C7 cells were cultured as described above, and treated with a single 50 μM dose of vehicle (ethanol extracted olive oil), T3 alpha (alpha tocotrienol), T3 beta (beta tocotrienol), T3 gamma (gamma tocotrienol), T3 delta (delta tocotrienol), T alpha (alpha tocopherol), T beta (beta tocopherol), TS (tocopherol succinate), GG (geranylgeraniol), SA (succinic acid). A control culture (vehicle only with no treatment) was grown alongside the treatments for comparison. Cell viability was measured using MTT assay at preselect times of 48 or 120 hours after treatment.

BXPC3 cells = test: MTT assay of BXPC3 cultures, single 50 μM dose; set-up: MTT assay result, run 1 / MTT assay result, run 2 / MTT assay result, run 3 / MTT assay result, run 4 / MTT assay result, run 5 / MTT assay result, run 6 / MTT assay result, run 7 / MTT assay result, av (average) / MTT assay result, av-blank / MTT assay result, av: unit not given here; conditions: BXPC3, 50 μM; for MTT assay result, av-blank: average minus blank
Experimental: BXPC3 cells were cultured in complete […] media containing 10% fetal bovine serum (FBS) and 1% penicillin-streptomycin, and 1% L-glutamine. BxPc-3 pancreatic cancer cells were cultured in complete RPMI media containing 10% fetal bovine serum (FBS), and 1% penicillin-streptomycin, 1% HEPES buffer, 1% sodium pyruvate and 1% L-glutamine HPDE6-C7 cells were cultured in serum-free keratinocyte SFM media. All cells were maintained at 37° C. in a humidified incubator with 5% CO2. The cells were treated with a single 50 μM dose of vehicle (vehicle only, may be a solvent), T3 alpha (alpha tocotrienol), T3 beta (beta tocotrienol), T3 gamma (gamma tocotrienol), T3 delta (delta tocotrienol), T alpha (alpha tocopherol), T beta (beta tocopherol), TS (tocopherol succinate), GG (geranylgeraniol), SA (succinic acid). A control (no treatment) culture was grown alongside the treatments for comparison. Cell viability was measured using MTT assay at preselect times of 48 or 120 hours after treatment.

For `CC(C)=CCC/C(C)=C/CC/C(C)=C/CC/C(C)=C/CO` [GG, geranylgeraniol], the “rel amt (relative value set to the control)” value (shortened to “relative value set”) (MiaPaCa-2 cells [1]; 24 hours) was 82, the “MTS assay result, run 1” value (MiaPaCa-2 cells [1]; 24 hours) was 0.186 and the “MTS assay result, run 2” value (MiaPaCa-2 cells [1]; 24 hours) was 0.166. For the same molecule, the “MTS assay result, run 3” value (MiaPaCa-2 cells [1]; 24 hours) was 0.175, the “MTS assay result, run 4” value (MiaPaCa-2 cells [1]; 24 hours) was 0.18 and the “MTS assay result, run 5” value (MiaPaCa-2 cells [1]; 24 hours) was 0.196. For the same molecule, the “MTS assay result, run 6” value (MiaPaCa-2 cells [1]; 24 hours) was 0.199, the “MTS assay result, run 7” value (MiaPaCa-2 cells [1]; 24 hours) was 0.184 and the “MTS assay result, run 8” value (MiaPaCa-2 cells [1]; 24 hours) was 0.178. For the same molecule, the “MTS assay result, run 9” value (MiaPaCa-2 cells [1]; 24 hours) was 0.183, the “relative value set” value (MiaPaCa-2 cells [1]; 48 hours) was 53 and the “MTS assay result, run 1” value (MiaPaCa-2 cells [1]; 48 hours) was 0.154. The “MTS assay result, run 2” value (MiaPaCa-2 cells [1]; 48 hours) was 0.194, the “MTS assay result, run 3” value (MiaPaCa-2 cells [1]; 48 hours) was 0.181 and the “MTS assay result, run 4” value (MiaPaCa-2 cells [1]; 48 hours) was 0.198. The “MTS assay result, run 5” value (MiaPaCa-2 cells [1]; 48 hours) was 0.236, the “MTS assay result, run 6” value (MiaPaCa-2 cells [1]; 48 hours) was 0.198 and the “MTS assay result, run 7” value (MiaPaCa-2 cells [1]; 48 hours) was 0.193. The “MTS assay result, run 8” value (MiaPaCa-2 cells [1]; 48 hours) was 0.192, the “MTS assay result, run 9” value (MiaPaCa-2 cells [1]; 48 hours) was 0.193 and the “relative value set” value (MiaPaCa-2 cells [1]; 72 hours) was 158. The “MTS assay result, run 1” value (MiaPaCa-2 cells [1]; 72 hours) was 0.784, the “MTS assay result, run 2” value (MiaPaCa-2 cells [1]; 72 hours) was 0.713 and the “MTS assay result, run 3” value (MiaPaCa-2 cells [1]; 72 hours) was 0.757. For the same molecule, the “MTS assay result, run 4” value (MiaPaCa-2 cells [1]; 72 hours) was 0.734, the “MTS assay result, run 5” value (MiaPaCa-2 cells [1]; 72 hours) was 0.682 and the “MTS assay result, run 6” value (MiaPaCa-2 cells [1]; 72 hours) was 0.665. The “MTS assay result, run 7” value (MiaPaCa-2 cells [1]; 72 hours) was 0.65, the “MTS assay result, run 8” value (MiaPaCa-2 cells [1]; 72 hours) was 0.627 and the “MTS assay result, run 9” value (MiaPaCa-2 cells [1]; 72 hours) was 0.702. The “relative value set” value (MiaPaCa-2 cells [2]; 48 hours) was 92, the “MTT assay result, av-blank” value (MiaPaCa-2 cells [2]; 48 hours) was 0.285 and the “MTT assay result, av” value (MiaPaCa-2 cells [2]; 48 hours) was 0.331. For the same molecule, the “MTT assay result, run 1” value (MiaPaCa-2 cells [2]; 48 hours) was 0.329, the “MTT assay result, run 2” value (MiaPaCa-2 cells [2]; 48 hours) was 0.339 and the “MTT assay result, run 3” value (MiaPaCa-2 cells [2]; 48 hours) was 0.321. For the same molecule, the “MTT assay result, run 4” value (MiaPaCa-2 cells [2]; 48 hours) was 0.328, the “MTT assay result, run 5” value (MiaPaCa-2 cells [2]; 48 hours) was 0.342 and the “MTT assay result, run 6” value (MiaPaCa-2 cells [2]; 48 hours) was 0.317. The “MTT assay result, run 7” value (MiaPaCa-2 cells [2]; 48 hours) was 0.341, the “relative value set” value (MiaPaCa-2 cells [2]; 120 hours (5 days)) was 93 and the “MTT assay result, av-blank” value (MiaPaCa-2 cells [2]; 120 hours (5 days)) was 1.679. The “MTT assay result, av” value (MiaPaCa-2 cells [2]; 120 hours (5 days)) was 1.731, the “MTT assay result, run 1” value (MiaPaCa-2 cells [2]; 120 hours (5 days)) was 1.738 and the “MTT assay result, run 2” value (MiaPaCa-2 cells [2]; 120 hours (5 days)) was 1.608. For the same molecule, the “MTT assay result, run 3” value (MiaPaCa-2 cells [2]; 120 hours (5 days)) was 1.577, the “MTT assay result, run 4” value (MiaPaCa-2 cells [2]; 120 hours (5 days)) was 1.744 and the “MTT assay result, run 5” value (MiaPaCa-2 cells [2]; 120 hours (5 days)) was 2.134. The “MTT assay result, run 6” value (MiaPaCa-2 cells [2]; 120 hours (5 days)) was 1.606, the “MTT assay result, run 7” value (MiaPaCa-2 cells [2]; 120 hours (5 days)) was 1.711 and the “relative value set” value (BXPC3 cells; 48 hours) was 108. For the same molecule, the “MTT assay result, av-blank” value (BXPC3 cells; 48 hours) was 0.246, the “MTT assay result, av (average)” value (BXPC3 cells; 48 hours, average of 7 runs) was 0.295 and the “MTT assay result, run 1” value (BXPC3 cells; 48 hours) was 0.308. The “MTT assay result, run 2” value (BXPC3 cells; 48 hours) was 0.272, the “MTT assay result, run 3” value (BXPC3 cells; 48 hours) was 0.299 and the “MTT assay result, run 4” value (BXPC3 cells; 48 hours) was 0.291. For the same molecule, the “MTT assay result, run 5” value (BXPC3 cells; 48 hours) was 0.299, the “MTT assay result, run 6” value (BXPC3 cells; 48 hours) was 0.3 and the “MTT assay result, run 7” value (BXPC3 cells; 48 hours) was 0.294. The “relative value set” value (BXPC3 cells; 120 hours (5 days)) was 106, the “MTT assay result, av-blank” value (BXPC3 cells; 120 hours (5 days)) was 0.610 and the “MTT assay result, av” value (BXPC3 cells; 120 hours (5 days), average of 7 runs) was 0.665. For the same molecule, the “MTT assay result, run 1” value (BXPC3 cells; 120 hours (5 days)) was 0.621, the “MTT assay result, run 2” value (BXPC3 cells; 120 hours (5 days)) was 0.655 and the “MTT assay result, run 3” value (BXPC3 cells; 120 hours (5 days)) was 0.672. The “MTT assay result, run 4” value (BXPC3 cells; 120 hours (5 days)) was 0.663, the “MTT assay result, run 5” value (BXPC3 cells; 120 hours (5 days)) was 0.657 and the “MTT assay result, run 6” value (BXPC3 cells; 120 hours (5 days)) was 0.724. For the same molecule, the “MTT assay result, run 7” value (BXPC3 cells; 120 hours (5 days)) was 0.66.
